Assay results reported in US10730826B2, “Ketone inhibitors of lysine gingipain” (CORTEXYME, INC., priority 2016, dated 2020).

Legend:
lysine gingipain (Kgp) [1] = target: lysine gingipain (Kgp) (Porphyromonas gingivalis (Bacteroides gingivalis), UniProt P72194); assay: biochemical; format: biochemical
Protocol: (§1) The specific assay conditions were as follows. Buffer: pH=7.5, 100 mM Tris-HCl, 75 mM NaCl, 2.5 mM CaCl2), 10 mM cysteine, 1% DMSO after all additions. Protein: 0.1 nM Kgp, isolated from culture of Porphyromonas gingivalis, as described by Pike et al. (J. Biol. Chem. 1994, 269(1), 406), and Potempa and Nguyen (Current Protocols in Protein Science. 2007, 21.20.1-21.20.27). Fluorogenic substrate: 10 μM Z-His-Glu-Lys-MCA. Time=90 minutes. Temperature=37° C.
(§2) Further assays to measure the inhibitory activity of compounds of the present invention against Kgp and cathepsins B, H, K, L, and S were conducted as described in Example 66. The capacities of the compounds to inhibit the activity of cathepsins F, V, and Z were also measured.

[2] = Pharmacokinetics in male CD-1 mice dosed p.o.; format: in vivo; details: p.o. 10 mg/kg, compared to reference compound 73
lysine gingipain (Kgp) [3] = assay: biochemical; format: biochemical, Porphyromonas gingivalis; details: as compared to reference compound 73
Protocol: as §1, §2

Structure (SMILES)	IC50 (lysine gingipain (Kgp) [1]; IC50 (nM) Kgp, Table 4) [nM]	further results
NCCCCC(NC(=O)c1cccnc1Br)C(=O)COc1c(F)cccc1F (centres unmarked) [Compound 34a]	0.13	
NCCCCC(NC(=O)c1ccc(F)cc1)C(=O)COc1c(F)cccc1F (centres unmarked) [Compound 35a]	0.1	
NCCCCC(NC(=O)c1ccccc1)C(=O)C(F)F (centres unmarked) [Compound 37a]	> 100	
NCCCCC(NC(=O)C1CCCC1)C(=O)Cn1cnccc1=O (centres unmarked) [Compound 39a]	> 100	
NCCCCC(NC(=O)C1CCCC1)C(=O)Cn1ccc(=O)nc1 (centres unmarked) [Compound 40a]	30.3	
NCCCCC(NC(=O)C1CCCC1)C(=O)Cn1cncc(F)c1=O (centres unmarked) [Compound 41a]	> 100	
NCCCCC(NC(=O)c1cccnc1)C(=O)COc1c(F)ccc(F)c1F (centres unmarked) [Compound 42a]	0.06	
NCCCCC(NC(=O)c1cccnc1)C(=O)COc1c(F)cccc1F (centres unmarked) [Compound 43a]	0.09	
CN(C)c1ccc(/N=N/c2ccc(C(=O)NCc3cc(F)c(OCC(=O)C(CCCCN)NC(=O)c4cccc(N=[N+]=[N-])c4)c(F)c3)cc2)cc1 (centres unmarked) [Compound 44a]	3.04	IC50 (lysine gingipain (Kgp) [1]; Kgp IC50 (nM), Table 5, probe compounds): 3 nM
COC(C)(C)C(=O)N[C@@H](CCCCN)C(=O)COc1c(F)cccc1F [Compound 48, (S)—N-(7-amino-1-(2,6-difluorophenoxy)-2-oxoheptan-3-yl)-2-methoxy-2-methylpropanamide]		oral availability [2]: improved oral availability; plasma concentrations [2]: increased plasma concentrations
COC(C)(C)C(=O)NC(CCCCN)C(=O)COc1c(F)cccc1F (centres unmarked) [Compound 48a]	0.07	
NCCCC[C@H](NC(=O)C1CCCC1)C(=O)COc1ccon1 [Compound 49, (S)—N-(7-amino-1-(isoxazol-3-yloxy)-2-oxoheptan-3-yl)cyclopentanecarboxamide]		concentrations in the brain and cerebrospinal fluid (CSF) [2]: reduced concentrations in the brain and/or cerebrospinal fluid
NCCCCC(NC(=O)C1CCCC1)C(=O)COc1ccon1 (centres unmarked) [Compound 49a]	0.23	
NCCCC[C@H](NC(=O)c1ccccn1)C(=O)COc1c(F)ccc(F)c1F [Compound 50, (S)—N-(7-amino-2-oxo-1-(2,3,6-trifluorophenoxy)heptan-3-yl)picolinamide]		selectivity for Kgp over endogenous cathepsins (lysine gingipain (Kgp) [3]): increased selectivity
NCCCCC(NC(=O)c1ccncc1)C(=O)COc1c(F)ccc(F)c1F (centres unmarked) [Compound 52a]	0.06	
NCCCC[C@H](NC(=O)c1ccc(F)nc1)C(=O)COc1ccon1 [Compound 55, (S)—N-(7-amino-1-(isoxazol-3-yloxy)-2-oxoheptan-3-yl)-6-fluoronicotinamide]		selectivity for Kgp over endogenous cathepsins (lysine gingipain (Kgp) [3]): far more selective
NCCCCC(NC(=O)c1cccnc1F)C(=O)COc1ccon1 (centres unmarked) [Compound 56a]	0.1	
COC(C)(C)C(=O)NC(CCCCN)C(=O)COc1ccon1 (centres unmarked) [Compound 57a]	0.09	
CS(C)(=O)=CC(=O)C(CCCCN)NC(=O)C1CCCC1 (centres unmarked) [Compound 58a]	4.66	
C[N+](C)(C)c1ccc(C(=O)NC(CCCCN)C(=O)COc2ccon2)cn1 (centres unmarked) [Compound 61a]	0.43	
CN(C)c1ccc(C(=O)NC(CCCCN)C(=O)COc2ccon2)cn1 (centres unmarked) [Compound 62a]	0.14	
COC(C)(C)C(=O)NC(CCCCN)C(=O)COc1cc(C)nc(C)c1 (centres unmarked) [Compound 63a]	0.09	
COC(C)(C)C(=O)NC(CCCCN)C(=O)COc1cccnc1 (centres unmarked) [Compound 64a]	0.4	
COC(C)(C)C(=O)NC(CCCCN)C(=O)COc1cnc(C)nc1 (centres unmarked) [Compound 65a]	0.16	
